Assay results reported in ChEMBL document CHEMBL1201862, “PubChem BioAssay data set” (2004).
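Dose response: 5 concentrations. Exposure: 48 h. Format: 96-well plates. Endpoint: linear interpolation; highest concentration if not reached. Here, GI50 denotes the concentration required for 50% inhibition of growth.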 Active and inactive are the calls of the source. Rule as the data show it: active = GI50 up to about 1.1 µM and inactive = higher.

How the values were obtained:
Test in all cases: NCI anticancer screen, dose series, 48 h
[1] = test system: SNB-75
[2] = test system: LXFL 529
[3] = test system: 786-0
[4] = test system: A498
[5] = test system: SK-OV-3
[6] = test system: UACC-257
[7] = test system: COLO 205
[8] = test system: IGROV-1
[9] = test system: KM-20L2
[10] = test system: U-251
[11] = test system: UO-31
[12] = test system: K562
[13] = test system: DLD-1
[14] = test system: XF498
[15] = test system: ACHN
[16] = test system: SF-539
[17] = test system: CAKI-1
[18] = test system: NCI-H226
[19] = test system: UACC-62
[20] = test system: HL-60
[21] = test system: NCI-H23
[22] = test system: KM12
[23] = test system: NCI-H522
[24] = test system: DMS-114
[25] = test system: SR
[26] = test system: MOLT-4
[27] = test system: HCT-116
[28] = test system: M19-MEL
[29] = test system: SNB-19
[30] = test system: HT-29
[31] = test system: SK-MEL-2
[32] = test system: SN12C
[33] = test system: HOP-18
[34] = test system: M14
[35] = test system: DMS-273
[36] = test system: Malme-3M
[37] = test system: OVCAR-8
[38] = test system: SK-MEL-5
[39] = test system: NCI-H460
[40] = test system: A549
[41] = test system: SF-268
[42] = test system: RXF 393
[43] = test system: EKVX
[44] = test system: SK-MEL-28
[45] = test system: OVCAR-5
[46] = test system: HCT-15
[47] = test system: SW-620
[48] = test system: CCRF-CEM
[49] = test system: HCC 2998
[50] = test system: SNB-78
[51] = test system: TK-10
[52] = test system: SF-295
[53] = test system: HOP-62
[54] = test system: HOP-92
[55] = test system: OVCAR-4
[56] = test system: OVCAR-3
[57] = test system: LOX IMVI
[58] = test system: RPMI-8226

In the case of `CCOc1ccccc1Nc1nc(C)c(C(=O)CC(=O)C(=O)Nc2ccccc2)s1`, the GI50 [1] is reported as 25.2 µM (inactive), the GI50 [2] is reported as 43.3 µM (inactive) and the GI50 [3] is reported as 99.8 µM (inactive). The GI50 [4] was 88.5 µM (inactive), the GI50 [5] was > 100 µM (inactive) and the GI50 [6] was 50.9 µM (inactive). For the same compound, the GI50 [7] was 49.3 µM (inactive), the GI50 [8] was > 100 µM (inactive) and the GI50 [9] was 66.4 µM (inactive). For the same compound, the GI50 [10] was 36.6 µM (inactive), the GI50 [11] was 32.2 µM (inactive) and the GI50 [12] was 34.8 µM (inactive). For the same compound, the GI50 [13] was 37.3 µM (inactive), the GI50 [14] was 31.6 µM (inactive) and the GI50 [15] was 37.8 µM (inactive). The GI50 [16] was > 100 µM (inactive), the GI50 [17] was 47.8 µM (inactive) and the GI50 [18] was 24.3 µM (inactive). For the same compound, the GI50 [19] was 37.9 µM (inactive), the GI50 [20] was 20.3 µM (inactive) and the GI50 [21] was 36.2 µM (inactive). For the same compound, the GI50 [22] was 45.6 µM (inactive), the GI50 [23] was 30.9 µM (inactive) and the GI50 [24] was 35.5 µM (inactive). The GI50 [25] was 49.7 µM (inactive), the GI50 [26] was 23.8 µM (inactive) and the GI50 [27] was 51.8 µM (inactive). The GI50 [28] was 36.5 µM (inactive), the GI50 [29] was 91.8 µM (inactive) and the GI50 [30] was 37.1 µM (inactive). The GI50 [31] was 37.3 µM (inactive), the GI50 [32] was 34.8 µM (inactive) and the GI50 [33] was > 100 µM (inactive). For the same compound, the GI50 [34] was > 100 µM (inactive), the GI50 [35] was 54.2 µM (inactive) and the GI50 [36] was > 100 µM (inactive). The GI50 [37] was 78.9 µM (inactive), the GI50 [38] was 49.2 µM (inactive) and the GI50 [39] was 49.7 µM (inactive). For the same compound, the GI50 [40] was 62.8 µM (inactive), the GI50 [41] was > 100 µM (inactive) and the GI50 [42] was 99.1 µM (inactive). For the same compound, the GI50 [43] was 42.4 µM (inactive), the GI50 [44] was > 100 µM (inactive) and the GI50 [45] was > 100 µM (inactive). For the same compound, the GI50 [46] was 41.9 µM, the GI50 [47] was 72.4 µM (inactive) and the GI50 [48] was 39.1 µM (inactive). The GI50 [49] was 52.7 µM (inactive), the GI50 [50] was > 100 µM (inactive) and the GI50 [51] was 73.8 µM (inactive). For the same compound, the GI50 [52] was 54.1 µM (inactive), the GI50 [53] was > 100 µM (inactive) and the GI50 [54] was 36.6 µM (inactive). For the same compound, the GI50 [55] was 11 µM (inactive), the GI50 [56] was 22.2 µM (inactive) and the GI50 [57] was 40.7 µM (inactive).
With `COc1cc(Cc2ccc3c(c2C#N)N(C)c2ccccc2S3)cc(OC)c1OC` the GI50 [2] was 6.87 µM (inactive), the GI50 [4] was 21.8 µM (inactive) and the GI50 [58] was 8.39 µM (inactive). For the same compound, the GI50 [5] was > 100 µM (inactive), the GI50 [6] was 12.1 µM (inactive) and the GI50 [7] was 36.9 µM (inactive). For the same compound, the GI50 [8] was > 100 µM (inactive), the GI50 [9] was 36.1 µM (inactive) and the GI50 [10] was 27.2 µM (inactive). For the same compound, the GI50 [11] was 30.9 µM (inactive), the GI50 [12] was 4.39 µM (inactive) and the GI50 [13] was > 100 µM (inactive). The GI50 [14] was 30.1 µM (inactive), the GI50 [15] was 41.4 µM (inactive) and the GI50 [16] was 17.8 µM (inactive). The GI50 [18] was 62.4 µM (inactive), the GI50 [20] was 13.7 µM (inactive) and the GI50 [21] was 4.14 µM (inactive). The GI50 [22] was > 100 µM (inactive), the GI50 [23] was 34.7 µM (inactive) and the GI50 [24] was 14.6 µM (inactive). For the same compound, the GI50 [25] was 6.14 µM (inactive), the GI50 [26] was 13.7 µM (inactive) and the GI50 [27] was 13.9 µM (inactive). For the same compound, the GI50 [28] was 52.4 µM (inactive), the GI50 [29] was 53.5 µM (inactive) and the GI50 [30] was 53.7 µM (inactive). The GI50 [31] was > 100 µM (inactive), the GI50 [32] was 22.3 µM (inactive) and the GI50 [33] was 72.4 µM (inactive). For the same compound, the GI50 [34] was > 100 µM (inactive), the GI50 [35] was 33.4 µM (inactive) and the GI50 [36] was 34.3 µM (inactive). The GI50 [37] was 19.8 µM (inactive), the GI50 [39] was 52.2 µM (inactive) and the GI50 [40] was 9.4 µM (inactive). The GI50 [41] was > 100 µM (inactive), the GI50 [42] was 15.3 µM (inactive) and the GI50 [43] was 40.8 µM (inactive). For the same compound, the GI50 [44] was > 100 µM (inactive), the GI50 [45] was > 100 µM (inactive) and the GI50 [46] was 11 µM. For the same compound, the GI50 [47] was > 100 µM (inactive), the GI50 [48] was 39.3 µM (inactive) and the GI50 [50] was > 100 µM (inactive). The GI50 [51] was > 100 µM (inactive), the GI50 [52] was 7.53 µM (inactive) and the GI50 [53] was 59.7 µM (inactive). For the same compound, the GI50 [54] was 48.5 µM (inactive), the GI50 [55] was > 100 µM (inactive) and the GI50 [56] was 18.7 µM (inactive). For the same compound, the GI50 [57] was 8.15 µM (inactive).
